Experimental data as given in publication PMC7918775, “Quality by Design Applied Development of Immediate-Release Rabeprazole Sodium Dry-Coated Tablet” (Pharmaceutics, 2021).
Entries after “also recorded” stand apart in the source; their conditions may differ. Where two headings read alike, the source gives them in different places.

What was measured:
[1] = physchem; conditions: water, thermodynamic from solid
Experimental: The solubility of each component in deionized water, solvents (ethanol, methanol), citric acid/sodium citrate buffer, and pH buffer was evaluated.
Each vial contained 10 mg rabeprazole sodium, and 200 µL of each solvent was slowly added. […] The solutions were filtered and then diluted 2000× to measure the quantity of rabeprazole sodium dissolved in the solution. Equilibrium or final rabeprazole sodium solubility was calculated from the HPLC peak. Peak area of sample solution × 100 × 100/Average of standard solution peak area ×1000

[2] = Stability of APIs in solution at various pH (content, appearance); type: physicochemical
[3] = API-API compatibility study (impurities by HPLC); type: physicochemical
Experimental: (§1) The latter reflects the proportions of APIs in each commercialized tablet. The prepared samples were stored in a stability chamber for 4 weeks at room temperature of 25 ± 2 °C/ 60 ± 5% RH and under acceleration conditions of 40 ± 2 °C/ 75 ± 5% RH, respectively. […] If none were detected, an additional impurity test was performed to confirm compatibility.

[4] = Rabeprazole sodium/excipient compatibility study (appearance, impurities by HPLC); type: physicochemical; conditions: 1:1 (w/w) mixtures, HPLC impurity test; threshold 3.5%
Experimental: as §1

[5] = cited from earlier work
[6] = cited from earlier work; remark: listed apart in the source
[7] = Experimental: The solution was then stirred at 37 ± 2 °C for 1 h and filtered by polyvinylidene fluoride (PVDF) membrane filter. Next, 50 mL of the filtrate was obtained and titrated with hydrochloric acid with 0.1 M sodium hydroxide solution (pH measurement method) with an endpoint of pH 3.5.

COCCCOc1ccnc(C[S+]([O-])c2nc3ccccc3[nH]2)c1C (stereo not drawn) [Rabeprazole sodium]
solubility [1]: > 110 mg/mL
Rabeprazole sodium content measured according to pH ([2]; pH 1.2 to 6.0): 30 to 60%
Time stable in solution ([2]; pH 8.0): ~ 26 h
Appearance in buffers ([2]; range of pH 1.2–12.0): changed in buffers with pH < 7.0; also recorded: transparent in buffers with pH > 8.0
Impurities, 4 Weeks ([3]; Accelerated Condition 40 °C/75% RH): 1.31%
Impurities, 4 Weeks ([3]; Room Temperature 25 °C/60% RH): 0.07%
Impurities, Initial ([3]; initial): 0.06%
Concentration of decomposition products [4]: no decomposition products were formed
solubility ([5]; Water): 10 mg/mL (Water)
Decomposition half-life ([5]; aqueous solutions with pH < 3.0): < 10 min
pKa (Strongest Acidic) [5]: 9.35
pKa (Strongest Basic) [5]: 4.24
Time to reach maximum plasma concentration ([6]; Adolescents, Tablets): 3.3 to 4.1 h
Time to reach maximum plasma concentration ([6]; Adults, Capsule): 1 to 6.5 h
Time to reach maximum plasma concentration ([6]; Adults, Tablets): 2 to 5 h
Bioavailability ([6]; Tablets): ~52%
Half-life (dose dependent) ([6]; adolescents): 33 to 60 min
Half-life (dose dependent) ([6]; adults): 60 to 120 min
Action onset time ([6]; in vivo): ≤ 1 h
Duration ([6]; in vivo): 24 h
Excretion: urine ([6]; in vivo): 90%
Metabolism ([6]; in vivo): metabolized by CYP3A and 2C19 to inactive metabolites in the liver
Protein binding rate ([6]; in vivo): 96.3%
Delay of absorption by food ([6]; oral, with food): up to 4 h or more
Absorption: Oral ([6]; oral): well absorbed within 1 h
Half-life increase ([6]; patients with mild to moderate hepatic impairment): 2–3 times

O=C([O-])O.[Na+] [Sodium bicarbonate]
Acid-neutralizing capacity (0.1 M HCl consumption) ([7]; 200 mg sodium bicarbonate): 38 mL
Acid-neutralizing capacity (0.1 M HCl consumption) ([7]; 300 mg sodium bicarbonate): 42 mL
Acid-neutralizing capacity (0.1 M HCl consumption) ([7]; 400 mg sodium bicarbonate): 45 mL
Acid-neutralizing capacity (0.1 M HCl consumption) ([7]; 500 mg sodium bicarbonate): 49 mL
Acid-neutralizing capacity (0.1 M HCl consumption) ([7]; 600 mg sodium bicarbonate): 57 mL
Acid-neutralizing capacity (0.1 M HCl consumption) ([7]; 700 mg sodium bicarbonate): 68 mL
Acid-neutralizing capacity (0.1 M HCl consumption) ([7]; 800 mg sodium bicarbonate): 79 mL
Acid-neutralizing capacity (0.1 M HCl consumption) ([7]; 900 mg sodium bicarbonate): 84 mL
Acid-neutralizing capacity (0.1 M HCl consumption) ([7]; 1000 mg sodium bicarbonate): 89 mL
PKa (carbonic acid) ([5]; carbonic acid): 6.351
PKa [5]: 10.329
Duration ([6]; Intravenous (IV)): 0.13 to 0.167 h
Onset time of action ([6]; Intravenous (IV)): fast
Excretion: urine ([6]; in vivo): < 1%
Duration ([6]; oral): 1 to 3 h
Onset time of action ([6]; oral): 15 min
